The values that follow come from US20040143014A1, “Therapeutic use of alpha-2-delta ligands” (Pfizer Inc, priority 2002, published 2004).

“Also recorded” adds a separate entry of the source.

Data set [1] deals with citric acid-induced cough. Kind of data set: Citric acid-induced cough in guinea pigs. The conditions noted are these: for inhibition of the cough response to citric acid inhalation: aerosolized 1 mM inhaled for 10 min prior to citric acid 0.25 M; for motor activity (behavioral effect, not quantified): guinea pigs, 1 mM aerosolized for 10 min. The procedure:
After the period of acclimatisation to laboratory conditions, animals were individually placed in a transparent perspex box (20×10×10 cm, Vetrotecnica, Italy) ventilated with a constant airflow of 400 ml/min. The tussive agents (citric acid 0.25 M) was nebulised via a mini-ultrasonic nebuliser (Ugo Basile, Italy). […] The appearance of cough was detected by means of a tie-clip microphone (Sony, Japan) and confirmed by the characteristic posture of the animal. The cough sounds were recorded and digitally stored. The number of elicited cough efforts was subsequently counted by a blind observer.
All experiments were carried out at the same time of day. To elicit cough, guinea pigs were exposed to aerosols of citric acid for 10 min.
(§1) Values were presented as mean±standard error of the mean (SEM). Comparisons between groups were made by one way analysis of variance (ANOVA) and the Dunnett's test for multiple comparisons. A p value of <0.05 was considered significant.

In data set [2] the test system is human small bronchi. Briefly: Human bronchi contraction induced by acetylcholine, organ bath. The conditions noted are these: 0.1 mM and 1 mM, 15 min before the stimulus; ACh 100 nM-10 mM. On the procedure:
The human samples were taken from 10 different patients who were undergoing lung resection for a solitary peripheral carcinoma. […] The bronchial rings (from 3 to 11 from each sample) were taken from the lobar or segmental bronchus of the lobe obtained at surgery, away from the tumor site.
Tissues were fixed to the base of the organ bath and connected to an isometric force transducer. […] During the initial stabilization period (90 min) tissues were washed six times. A challenge with acetyl choline (Ach) (1 mM) was performed and after washing, the tissue was allowed to equilibrate for an additional 90 min. To prevent peptide degradation phosphoramidon (1 μM) was added to the bath. Viability of the tissues was tested with the response to ACh (1 mM).
Experiments in human bronchi were performed in the presence of L-NAME (100 μM) to block the production of nitric oxide, indomethacin (5 μM) to block the production of prostanoids and propranolol (1 μM) to block β-adrenoceptors.
as §1

Data set [3] concerns human small bronchi. Kind of data set: Human bronchi contraction produced by electric field stimulation (EFS), organ bath. Particulars: 0.1 mM and 1 mM; EFS 30 Hz, 0.5 ms, 10 sec, 70V; with L-NAME, indomethacin, propranolol.
From the text: In a separate set of experiments, human bronchi were electrically stimulated (30 Hz, 0.5 ms pulse width, duration 10 sec, 70V).
For data set [4], the system named is citric acid induced cough. The conditions noted are these: guinea pigs; Lalloo et al., Trevisani et al.; cited from earlier work.
Another data set concerns rat spinal tissues. Particulars: only after inflammation or activation of protein kinase C; Pain 2003, 105, 133-141; cited from earlier work.

Take `NC[C@]1(CC(=O)O)C[C@H]2CC[C@H]2C1` [Compound A, (1α, 3α,5α)(3-amino-methyl-bicyclo[3.2.0]hept-3-yl)-acetic acid]: in data set [1], the “inhibition of the cough response to citric acid inhalation” value was “significant inhibition” and the “motor activity (behavioral effect, not quantified)” value was “some degree of reduction in motor activity”. For the same molecule, in the data set with human small bronchi [2], the “inhibition of the contraction caused by acetylcholine” value is on record as “did not produce any significant inhibition; also recorded: Absence of effect”. The “effect on the contractile response produced by EFS” value with human small bronchi [3] was “significant (p<0.05) inhibitory effect”.
As to `Oc1cc2c(cc1O)CN(C(=S)NCCc1ccc(Cl)cc1)CCC2` [capsazepine], in data set [4], the “effect on citric acid induced cough” value was “inhibited this response”.
With `NCC1(CC(=O)O)CCCCC1` [gabapentin, 1-(aminomethyl)-cyclohexylacetic acid], in data set [1], the “inhibition of the cough response to citric acid inhalation” value was “significant inhibition” and the “motor activity (behavioral effect, not quantified)” value is recorded as “some degree of reduction in motor activity”. In the data set on rat spinal tissues, the “release of substance P and CGRP” value is “reduce release of substance P and CGRP”. Besides, the “inhibition of the contraction caused by acetylcholine” value in the data set with human small bronchi [2] is listed as “did not produce any significant inhibition; also recorded: Absence of effect”. The “effect on the contractile response produced by EFS” value with human small bronchi [3] was “significant (p<0.05) inhibitory effect”.
For `C=C(C)[C@]12C[C@@H](C)[C@@]34O[C@](Cc5ccccc5)(O[C@@H]1[C@@H]3C=C(COC(=O)Cc1cc(I)c(O)c(OC)c1)C[C@]1(O)C(=O)C(C)=C[C@@H]41)O2` [iodo-resiniferatoxin], in data set [4], the “effect on citric acid induced cough” value is on record as “inhibited this response”.
Take `CC(C)C[C@H](CN)CC(=O)O` [pregabalin, (S)-(+)-4-amino-3-(2-methylpropyl)butanoic acid]: in the data set on rat spinal tissues, the “release of substance P and CGRP” value is “reduce release of substance P and CGRP”.
